Measured values published in PMC7587356, “High-Throughput Screening for Inhibitors of the SARS-CoV-2 Protease Using a FRET-Biosensor” (Molecules, 2020).
Where a name gives a salt, the structure may show the parent alone. Read-outs that look alike come from different tables or passages of the source.

Target: SARS-CoV-2 3CLpro (Severe acute respiratory syndrome coronavirus 2, UniProt P0DTD1)
Experiment: biochemical
Format: biochemical
Parameters: Replicate_1 / Replicate_2 / mean / mean (LOPAC_screen_w_protease): unit not given here
Conditions: for inhibition at 5 µM: 4 h
[1] = sheet LOPAC_screen_w_protease, primary screen of LOPAC1280 at 5 µM with protease, mean of the two replicates
[2] = sheet LOPAC_screen_w_protease, primary screen of LOPAC1280 at 5 µM with protease, replicate 1
[3] = sheet LOPAC_screen_w_protease, primary screen of LOPAC1280 at 5 µM with protease, replicate 2
[4] = sheet LOPAC_screen_w_protease, primary screen with protease, 5 µM, mean of two replicates
[5] = sheet LOPAC_screen_w_protease, primary screen with protease, 5 µM, replicate 1
[6] = sheet LOPAC_screen_w_protease, primary screen with protease, 5 µM, replicate 2
[7] = sheet LOPAC_screen_w_protease, primary screen with protease, compound at 5 µM, mean of two replicates
[8] = sheet LOPAC_screen_w_protease, primary screen with protease, compound at 5 µM, replicate 1
[9] = sheet LOPAC_screen_w_protease, primary screen with protease, compound at 5 µM, replicate 2
[10] = sheet LOPAC_screen_w_protease, LOPAC1280 primary screen at 5 µM, with protease, mean of the two replicates
[11] = sheet LOPAC_screen_w_protease, LOPAC1280 primary screen at 5 µM, with protease, replicate 1
[12] = sheet LOPAC_screen_w_protease, LOPAC1280 primary screen at 5 µM, with protease, replicate 2
[13] = sheet LOPAC_screen_w_protease, primary screen with protease, mean of two replicates, read-out: mean
[14] = sheet LOPAC_screen_w_protease, primary screen with protease, replicate 1, read-out: Replicate_1
[15] = sheet LOPAC_screen_w_protease, primary screen with protease, replicate 2, read-out: Replicate_2
[16] = sheet LOPAC_screen_w_protease, primary screen with protease, 5 µM, replicate 1, read-out: Replicate_1
[17] = sheet LOPAC_screen_w_protease, primary screen with protease, 5 µM, replicate 2, read-out: Replicate_2
[18] = sheet LOPAC_screen_w_protease, primary screen of LOPAC1280 at 5 µM with protease, mean of the two replicates, read-out: mean
[19] = sheet LOPAC_screen_w_protease, primary screen of LOPAC1280 at 5 µM with protease, replicate 1, read-out: Replicate_1
[20] = sheet LOPAC_screen_w_protease, primary screen of LOPAC1280 at 5 µM with protease, replicate 2, read-out: Replicate_2
[21] = LOPAC1280 primary screen with protease, 5 µM compound, replicate 1, read-out: Replicate_1 (LOPAC_screen_w_protease)
[22] = LOPAC1280 primary screen with protease, 5 µM compound, replicate 2, read-out: Replicate_2 (LOPAC_screen_w_protease)
[23] = LOPAC1280 primary screen with protease, 5 µM compound, mean of two replicates
[24] = sheet LOPAC_screen_w_protease, primary screen with protease, 5 µM, mean of two replicates, read-out: mean

## O=c1[nH]c(=O)n([C@H]2C[C@H](O)[C@@H](CO)O2)cc1/C=C/Br [(E)-5-(2-Bromovinyl)-2'-deoxyuridine]
[1]
  mean: 3.159
[2]
  Replicate_1: 2.158
[3]
  Replicate_2: 4.161

## CS(=O)(=O)O.Cc1c(C(=O)c2cccc3ccccc23)c2cccc3c2n1[C@H](CN1CCOCC1)CO3 [(R)-(+)-WIN 55,212-2 mesylate]
[4]
  mean: -0.1611
[5]
  Replicate_1: -0.3938
[6]
  Replicate_2: 0.07161

## N[C@H](C(=O)O)c1cc(O)cc(O)c1 [(S)-3,5-Dihydroxyphenylglycine]
[1]
  mean: 3.456
[2]
  Replicate_1: 2.928
[3]
  Replicate_2: 3.983

## CC[C@@]1(O)C(=O)OCc2c1cc1n(c2=O)Cc2cc3ccccc3nc2-1 [(S)-(+)-Camptothecin]
[1]
  mean: 3.282
[2]
  Replicate_1: 4.077
[3]
  Replicate_2: 2.488

## OC[C@H]1O[C@@H](n2cnc3c(N[C@H]4CC5CCC4C5)ncnc32)[C@H](O)[C@@H]1O (stereo partly drawn) [(S)-ENBA]
[7]
  mean: 2.65
[8]
  Replicate_1: 4.26
[9]
  Replicate_2: 1.041

## C[C@](N)(CCP(=O)(O)O)C(=O)O.Cl [(S)-MAP4 hydrochloride]
[1]
  mean: 4.027
[2]
  Replicate_1: 4.444
[3]
  Replicate_2: 3.611

## C/C=C1\C(=O)C[C@H]2[C@@H]3CCC4=CC(=O)CC[C@]4(C)[C@H]3CC[C@]12C [(Z)-Gugglesterone]
[1]
  mean: 3.352
[2]
  Replicate_1: 5.164
[3]
  Replicate_2: 1.54

## Cl.NC[C@@H]1O[C@H](C23CC4CC(CC(C4)C2)C3)Cc2c1ccc(O)c2O [A-77636 hydrochloride]
Sheet LOPAC_screen_w_protease, primary screen at 5 µM, mean of two replicates
  mean (LOPAC screen with protease): 61.6634
Sheet LOPAC_screen_w_protease, primary screen at 5 µM, replicate 1
  Replicate_1 (LOPAC screen with protease): 62.3885
Sheet LOPAC_screen_w_protease, primary screen at 5 µM, replicate 2
  Replicate_2 (LOPAC screen with protease): 60.9383

## CCS(=O)(=O)Nc1cccc(C(=C2CCCCC2)c2c[nH]cn2)c1 [A-315456]
[10]
  mean: 0.823
[11]
  Replicate_1: 1.277
[12]
  Replicate_2: 0.3687

## CC1=C(C)C(=O)C(CCCCC#CCCCC#CCO)=C(C)C1=O [AA-861]
[13]
  inhibition at 5 µM: 2.27%
[14]
  inhibition at 5 µM: 3.11%
[15]
  inhibition at 5 µM: 1.43%

## CNC(=O)[C@H]1O[C@@H](n2cnc3c(NCc4ccc(N)cc4)ncnc32)[C@H](O)[C@@H]1O [AB-MECA]
[7]
  mean: 2.5809
[8]
  Replicate_1: 2.895
[9]
  Replicate_2: 2.266

## O=C(Cc1ccc(Cl)c(Cl)c1)OCCN1CCCC1.O=C(O)C(=O)O [AC 915 oxalate]
Sheet LOPAC_screen_w_protease, LOPAC1280 at 5 µM, mean of two replicates
  mean: 1.181
Sheet LOPAC_screen_w_protease, LOPAC1280 at 5 µM, replicate 1
  Replicate_1: 1.4848
Sheet LOPAC_screen_w_protease, LOPAC1280 at 5 µM, replicate 2
  Replicate_2: 0.8765

## CC(C)C1C2CCC(C2)C1N.Cl (centres unmarked) [AGN 192403 hydrochloride]
[7]
  mean: 2.735
[8]
  Replicate_1: 2.811
[9]
  Replicate_2: 2.66

## NC1(C(=O)O)CCc2cc(C(=O)O)ccc21 (centres unmarked) [AIDA]
[1]
  mean: 3.327
[2]
  Replicate_1: 3.929
[3]
  Replicate_2: 2.7246

## O=C(O)CCC/C=C\C[C@@H]1[C@@H](/C=C/[C@H](O)C2Cc3ccccc3C2)[C@@H](F)C[C@@H]1O [AL-8810]
  Replicate_1: 0.247
  Replicate_2: 1.148
  mean: 0.6974

## CCN(CC)c1ncnc2c1ncn2[C@@H]1O[C@H](COP(=O)([O-])OP(=O)([O-])C(Br)(Br)P(=O)([O-])O)[C@@H](O)[C@H]1O.[Na+].[Na+].[Na+] [ARL 67156 trisodium salt]
[7]
  mean: 2.893
[8]
  Replicate_1: 2.692
[9]
  Replicate_2: 3.094

## CC(C)(C)c1o[nH]c(=O)c1CC(N)C(=O)O (centres unmarked) [ATPA]
[10]
  mean: 0.4603
[11]
  Replicate_1: -0.08438
[12]
  Replicate_2: 1.005

## CC(C)(C)c1onc(OCP(=O)(O)O)c1CC(N)C(=O)O (centres unmarked) [ATPO]
[7]
  mean: 3.0772
[8]
  Replicate_1: 4.002
[9]
  Replicate_2: 2.152

## CC(=O)Nc1nnc(S(N)(=O)=O)s1 [Acetazolamide]
[16]
  inhibition at 5 µM: 0.216%
[17]
  inhibition at 5 µM: -0.714%

## CC(=O)c1ccc(S(=O)(=O)NC(=O)NC2CCCCC2)cc1 [Acetohexamide]
[18]
  inhibition at 5 µM: 3.3%
[19]
  inhibition at 5 µM: 2.5%
[20]
  inhibition at 5 µM: 4.1%

## CC(=O)OC(C)C[N+](C)(C)C.[Cl-] (stereo not drawn) [Acetyl-beta-methylcholine chloride]
[4]
  mean: 0.2718
[5]
  Replicate_1: 1.198
[6]
  Replicate_2: -0.6541

## CC(=O)Oc1ccccc1C(=O)O [Acetylsalicylic acid]
[21]
  inhibition at 5 µM: 1.9%
[22]
  inhibition at 5 µM: 1.38%
[23]
  mean (LOPAC_screen_w_protease): 1.637

## CC(=O)SCC[N+](C)(C)C.[Cl-] [Acetylthiocholine chloride]
[10]
  mean: 0.4496
[11]
  Replicate_1: 1.2654
[12]
  Replicate_2: -0.3662

## CCCCC[C@H](CC(=O)NO)C(=O)N[C@H](C(=O)N1CCC[C@H]1CO)C(C)C [Actinonin]
[21]
  inhibition at 5 µM: 1.42%
[22]
  inhibition at 5 µM: 1.48%
[23]
  mean (LOPAC_screen_w_protease): 1.4498

## NCCNC(=O)Cc1ccc(NC(=O)Cc2ccc(Nc3ncnc4c3ncn4[C@@H]3O[C@H](CO)[C@@H](O)[C@H]3O)cc2)cc1 [Adenosine amine congener]
[7]
  mean: 2.686
[8]
  Replicate_1: 3.268
[9]
  Replicate_2: 2.1037

## Nc1ncnc2c1ncn2[C@@H]1O[C@H](CO)[C@@H](O)[C@H]1O [Adenosine]
read-out: Replicate_1
  inhibition at 5 µM: 1.26%
read-out: Replicate_2
  inhibition at 5 µM: 3.55%
read-out: mean
  inhibition at 5 µM: 2.4%

## NCCCCN=C(N)N [Agmatine sulfate]
Sheet LOPAC_screen_w_protease, LOPAC1280 at 5 µM, mean of two replicates, read-out: mean
  inhibition at 5 µM: 1.26%
Sheet LOPAC_screen_w_protease, LOPAC1280 at 5 µM, replicate 1, read-out: Replicate_1
  inhibition at 5 µM: 0.743%
Sheet LOPAC_screen_w_protease, LOPAC1280 at 5 µM, replicate 2, read-out: Replicate_2
  inhibition at 5 µM: 1.77%

## CC1=C[C@@H]2c3cccc4[nH]cc(c34)C[C@H]2N(C)C1 [Agroclavine]
[18]
  inhibition at 5 µM: 3.47%
[19]
  inhibition at 5 µM: 3.6%
[20]
  inhibition at 5 µM: 3.34%

## CC(N)C(=O)OC(C)(C)Cc1ccc(Cl)cc1 (centres unmarked) [Alaproclate hydrochloride]
[18]
  inhibition at 5 µM: 3.56%
[19]
  inhibition at 5 µM: 2.81%
[20]
  inhibition at 5 µM: 4.3%

## CC(C)(C)NCC(O)c1ccc(O)c(CO)c1.CC(C)(C)NCC(O)c1ccc(O)c(CO)c1.O=S(=O)(O)O (centres unmarked) [Albuterol hemisulfate]
LOPAC1280 primary screen with protease, 5 µM compound, mean of the two replicates
  mean (LOPAC_screen_w_protease): 2.078
LOPAC1280 primary screen with protease, 5 µM compound, replicate 1
  Replicate_1 (LOPAC_screen_w_protease): 2.563
LOPAC1280 primary screen with protease, 5 µM compound, replicate 2
  Replicate_2 (LOPAC_screen_w_protease): 1.593

## O=c1nc2[nH]c3ccccc3nc-2c(=O)[nH]1 [Alloxazine]
Sheet LOPAC_screen_w_protease, LOPAC1280 primary screen with protease, 5 µM compound, mean of the two replicates, read-out: mean
  inhibition at 5 µM: 4.73%
Sheet LOPAC_screen_w_protease, LOPAC1280 primary screen with protease, 5 µM compound, replicate 1, read-out: Replicate_1
  inhibition at 5 µM: 4.91%
Sheet LOPAC_screen_w_protease, LOPAC1280 primary screen with protease, 5 µM compound, replicate 2, read-out: Replicate_2
  inhibition at 5 µM: 4.55%

## C=CCc1ccccc1OCC(O)CNC(C)C (centres unmarked) [Alprenolol hydrochloride]
[24]
  inhibition at 5 µM: 0.137%
[16]
  inhibition at 5 µM: 0.164%
[17]
  inhibition at 5 µM: 0.11%

## NC12CC3CC(CC(C3)C1)C2 [Amantadine hydrochloride]
[13]
  inhibition at 5 µM: 2.48%
[14]
  inhibition at 5 µM: 1.91%
[15]
  inhibition at 5 µM: 3.05%

## CCn1cc(C(=O)O)c(=O)c2ccc(Cc3ccccc3)nc21 [Amfonelic acid]
[18]
  inhibition at 5 µM: 3.23%
[19]
  inhibition at 5 µM: 4.99%
[20]
  inhibition at 5 µM: 1.47%

## N=C(N)NC(=O)c1nc(Cl)c(N)nc1N [Amiloride hydrochloride]
[24]
  inhibition at 5 µM: 0.179%
[16]
  inhibition at 5 µM: -0.488%
[17]
  inhibition at 5 µM: 0.846%

## CN1[C@@H]2CC[C@H]1C[C@@H](OC(c1ccccc1)c1ccccc1N)C2 (some centres unmarked) [Aminobenztropine]
Sheet LOPAC_screen_w_protease, primary screen with protease, compound at 5 µM, mean of two replicates, read-out: mean
  inhibition at 5 µM: 3.04%
Sheet LOPAC_screen_w_protease, primary screen with protease, compound at 5 µM, replicate 1, read-out: Replicate_1
  inhibition at 5 µM: 2.54%
Sheet LOPAC_screen_w_protease, primary screen with protease, compound at 5 µM, replicate 2, read-out: Replicate_2
  inhibition at 5 µM: 3.53%
